Experimental data: PMC10714182 (JACC: Basic to Translational Science, 2023)

Key:
[1] = test system: Sugen-hypoxia (Su/Hx) mouse model of PAH; assay: Sugen-hypoxia experimental PAH, prevention study; type: in vivo, C57BL/6 mice
5-HT2B [2] = target: T1, 5-HT2B (Homo sapiens, UniProt P41595); details: read-out: previously reported IC50; cited from earlier work
5-HT2B [3] = target: T1, 5-HT2B; assay: 5-HT2B functional readouts; type: cell-based; details: calcium mobilization and G protein dissociation (BRET2)
[4] = test system: Sugen-hypoxia (Su/Hx) mouse model of PAH; assay: Sugen-hypoxia experimental PAH, interventional study; type: in vivo, C57BL/6 mice; details: intervention, treatment for 2 weeks after 2 weeks of PAH induction

T1 sequence (P41595 whole entry): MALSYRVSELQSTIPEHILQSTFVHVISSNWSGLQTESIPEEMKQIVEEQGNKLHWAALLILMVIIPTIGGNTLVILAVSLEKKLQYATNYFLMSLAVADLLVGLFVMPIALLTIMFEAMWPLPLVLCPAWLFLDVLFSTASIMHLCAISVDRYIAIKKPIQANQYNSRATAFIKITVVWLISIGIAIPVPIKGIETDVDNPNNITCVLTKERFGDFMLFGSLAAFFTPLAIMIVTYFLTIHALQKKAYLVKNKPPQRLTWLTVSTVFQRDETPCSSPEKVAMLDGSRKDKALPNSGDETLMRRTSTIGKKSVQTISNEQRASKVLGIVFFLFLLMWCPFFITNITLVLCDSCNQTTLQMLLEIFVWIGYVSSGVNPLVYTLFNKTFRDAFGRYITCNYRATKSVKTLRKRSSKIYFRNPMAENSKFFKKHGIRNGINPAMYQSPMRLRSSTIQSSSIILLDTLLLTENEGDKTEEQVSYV

behaviour in 5-HT2B functional readouts (5-HT2B [3]): true antagonist
Compound: Cc1cc(NC(=O)Nc2ccc3c(ccn3C)c2)sn1 [SB204741, N-(1-methyl-5-indolyl)-N'-(3-methyl-5-isothiazolyl)urea]
RVSP vs vehicle control-treated Su/Hx mice ([1]; osmotic pump 3 weeks, SB204741 1 mg/kg/d, VU6047534 10 mg/kg/d): significantly reduced
number of partially and fully muscularized small vessels (0-25 μm) ([1]; treatment before induction of experimental PAH): reduced the number of both partially and fully muscularized small vessels
IC50 (5-HT2B [2]): 39.3 nM
number of partially and fully muscularized small vessels (0-25 μm) [4]: reduced the number of partially, but not fully, muscularized small vessels
